Measurements taken from patent US10092547B2, “Substituted aliphanes, cyclophanes, heteraphanes, heterophanes, hetero- heteraphanes and metallocenes useful for treating HCV infections” (priority 2011, dated 2018).
Where two headings read alike, the source gives them in different places.

Tested on: HCV replicon (NS5A1b) in Huh-7 cells
Experiment: microbe, parasite or virus in culture
Type: cell-based
Conditions: Hepatitis C virus
Experimental: Compounds claimed herein are tested for the ability to inhibit viral replication of the Hepatitis C replicon in cultured cells in which the HCV replicon construct has been incorporated. The HCV replicon system was described by Bartenschlager, et. al (Science, 285, pp. 110-113 (1999)). The replicon system is predictive of in vivo anti-HCV activity; compounds that are active in humans uniformly evidence activity in the replicon assay.
In this assay HCV replicon containing cells are treated with different concentrations of the test compound to ascertain the ability of the test compound to suppress replication of the HCV replicon. As a positive control, HCV replicon-containing cells are treated with different concentrations of interferon alpha, a known inhibitor of HCV replication. The replicon assay system includes Neomycin Phosphotransferase (NPT) as a component of the replicon itself in order to detect the transcription of replicon gene products in the host cell. Cells in which the HCV replicon is actively replicating have high levels of NPT; the level of NPT is proportional to HCV replication. […] The NPT level of each sample is measured using a captured ELISA.
A protocol for testing compounds for the ability to inhibit viral replication of the Hepatitis C replicon cultured cells in which the replicon construct has been incorporated, follows.
The HCV replicon contains, 5′-3′, the HCV-IRES, the neomycin phosphotransferase (neo) gene, the IRES of encephalomyocarditis virus, which directs translation of HCV sequences NS3 to NS5B, and the 3′-NTR. The sequence of the HCV replicon has been deposited in GenBank (Accession no. AJ242652).
The replicon is transfected into Huh-7 cells using standard methods such as electroporation.
The equipment and materials include, but are not limited to, Huh-7 HCV replicon-containing cells, maintenance media (DMEM (Dulbecco's modified Eagle media) supplemented with 10% FBS, L-glutamine, non-essential amino acids, penicillin (100 units/ml), streptomycin (100 micrograms/ml), and 500 micrograms/ml of Geneticin (G418), screening media (DMEM supplemented with 10% FBS, L-glutamine, non-essential amino acids, penicillin (100 units/ml) and streptomycin (100 micrograms/ml), 96 well tissue culture plates (flat bottom), 96 well plates (U bottom for drug dilution), Interferon alpha for positive control, fixation reagent (such as methanol: acetone), primary antibody (rabbit anti-NPTII), secondary antibody: Eu-N1 1, and enhancement solution.
HCV replicon-containing cells support high levels of viral RNA replicon replication when their density is suitable. Over-confluency causes decreased viral RNA replication. Therefore, cells must be kept growing in log phase in the presence of 500 micrograms/ml of G418. Generally, cells should be passed twice a week at 1:4-6 dilution. Cell maintenance is conducted as follows:
HCV replicon-containing cells are examined under a microscope to ensure that cells growing well. Cells are rinsed once with PBS and 2 ml trypsin is added. The cell/trypsin mixture is incubated at 37° C. in a CO2 incubator for 3-5 minutes. After incubation 10 ml of complete media is added to stop the trypsinization reaction. Cells are blown gently, put into a 15 ml tube, and spun at 1200 rpm for 4 minutes. The trypsin/medium solution is removed. Medium (5 ml) is added and the cells are mixed carefully. The cells are counted.
The cells are then seeded onto 96-well plates at a density of 6000-7500 cells/100 microliters/well (6-7.5×10^5 cells/10 ml/plate). The plates are then incubated at 37° C. in a 5% CO2 incubator.
Cells are examined under a microscope approximated 24 hours after seeding and prior to adding drugs. If counting and dilution were performed correctly, cells are 60-70% confluent and nearly all cells should attach and spread evenly in the well.
HCV replicon-containing cells are rinsed with once PBS once; 2 mls of trypsin are then added. Cells are incubated at 37° C. in a 5% CO2 incubator for 3-5 minutes. […]

[1] = Huh-7, Example 9 replicon assay, read-out: EC50 values in HCV replicon assay
[2] = 72 h, NS5A1b, HCV replicon-containing Huh-7 cells, three days, read-out: EC50 (μM) NS5A1b

| SMILES | EC50 [1] [nM] | EC50 [2] [nM] |
| --- | --- | --- |
| CC(C)(C)OC(=O)N1[C@H](c2nc3ccc(B4OC(C)(C)C(C)(C)O4)cc3[nH]2)C[C@@H]2CCCC[C@@H]21 [Compound 16, (2S,3aS,7aS)-tert-butyl 2-(6-(4,4,5,5-tetramethyl-1,3,2-dioxaborolan-2-yl)-1H-benzo[d]imidazol-2-yl)octahydro-1H-indole-1-carboxylate] | ≤ 10000 | – |
| CC(C)(C)OC(=O)Nc1ccc(B2OC(C)(C)C(C)(C)O2)cc1NC(=O)OC(C)(C)C [Compound 25, di-tert-butyl (4-(4,4,5,5-tetramethyl-1,3,2-dioxaborolan-2-yl)-1,2-phenylene)dicarbamate] | ≤ 10000 | – |
| COC(=O)N[C@H](C(=O)N1CCC[C@H]1c1nc(-c2ccc(-c3cc4ccc3CCc3ccc(c(-c5ccc(-c6c[nH]c([C@@H]7CCCN7C(=O)[C@@H](NC(=O)OC)C(C)C)n6)cc5)c3)CC4)cc2)c[nH]1)C(C)C [Compound 40] | ≤ 10000 | 0.012 |
| COC(=O)N[C@H](C(=O)N1[C@H](c2nc3cc(-c4cc5ccc4CCc4ccc(c(-c6ccc7[nH]c([C@@H]8C[C@@H]9CCCC[C@@H]9N8C(=O)[C@@H](NC(=O)OC)C(C)C)nc7c6)c4)CC5)ccc3[nH]2)C[C@@H]2CCCC[C@@H]21)C(C)C [Compound 43] | – | 2.85 |
| COC(=O)N[C@H](C(=O)N1CCC[C@H]1c1ncc(-c2ccc(C34CC(c5ccc(-c6cnc([C@@H]7CCCN7C(=O)[C@@H](NC(=O)OC)C(C)C)[nH]6)cc5)(C3)C4)cc2)[nH]1)C(C)C [Compound 44] | – | 4.08 |
| COC(=O)N[C@H](C(=O)N1CCC[C@H]1c1nc2cc(-c3cc4ccc3CCc3ccc(c(-c5ccc6[nH]c([C@@H]7CCCN7C(=O)[C@@H](NC(=O)OC)C(C)C)nc6c5)c3)CC4)ccc2[nH]1)C(C)C [Compound 45] | – | < 3.2 |
| COC(=O)N[C@H](C(=O)N1CCC[C@H]1c1nc(-c2ccc(-c3cc4c(-c5c[nH]c([C@@H]6CCCN6C(=O)[C@@H](NC(=O)OC)C(C)C)n5)cc3CCc3ccc(cc3)CC4)cc2)c[nH]1)C(C)C [Compound 46] | – | < 3.17 |
| COC(=O)N[C@H](C(=O)N1CCC[C@H]1c1nc(-c2ccc(-c3cc4ccc3CCc3ccc(c(-c5c[nH]c([C@@H]6CCCN6C(=O)[C@@H](NC(=O)OC)C(C)C)n5)c3)CC4)cc2)c[nH]1)C(C)C [Compound 47] | – | 5.02 |
| COC(=O)N[C@H](C(=O)N1CCC[C@H]1c1nc2cc(-c3cc4ccc3CCc3ccc(c(-c5ccc6[nH]c([C@@H]7CCCN7C(=O)[C@@H](NC(=O)OC)c7ccccc7)nc6c5)c3)CC4)ccc2[nH]1)c1ccccc1 [Compound 49] | – | 10.2 |
| COC(=O)N[C@@H](CCSC)C(=O)N1CCC[C@H]1c1nc2cc(-c3cc4ccc3CCc3ccc(c(-c5ccc6[nH]c([C@@H]7CCCN7C(=O)[C@H](CCSC)NC(=O)OC)nc6c5)c3)CC4)ccc2[nH]1 [Compound 50] | – | 8.41 |
| COC(=O)N1CCC[C@H]1C(=O)N1CCC[C@H]1c1nc2cc(-c3cc4ccc3CCc3ccc(c(-c5ccc6[nH]c([C@@H]7CCCN7C(=O)[C@@H]7CCCN7C(=O)OC)nc6c5)c3)CC4)ccc2[nH]1 [Compound 51] | – | > 1000 |
| COC(=O)N[C@H](C(=O)N1CCC[C@H]1c1nc(-c2ccc(-c3cc4ccc3CCc3ccc(c(-c5ccc(-c6c[nH]c([C@@H]7CCCN7C(=O)[C@@H](NC(=O)OC)c7ccccc7)n6)cc5)c3)CC4)cc2)c[nH]1)c1ccccc1 [Compound 52] | – | 9.83 |
| COC(=O)N[C@@H](CCSC)C(=O)N1CCC[C@H]1c1nc(-c2ccc(-c3cc4ccc3CCc3ccc(c(-c5ccc(-c6c[nH]c([C@@H]7CCCN7C(=O)[C@H](CCSC)NC(=O)OC)n6)cc5)c3)CC4)cc2)c[nH]1 [Compound 53] | – | 211 |
| COC(=O)N1CCC[C@H]1C(=O)N1CCC[C@H]1c1nc(-c2ccc(-c3cc4ccc3CCc3ccc(c(-c5ccc(-c6c[nH]c([C@@H]7CCCN7C(=O)[C@@H]7CCCN7C(=O)OC)n6)cc5)c3)CC4)cc2)c[nH]1 [Compound 54] | – | > 1000 |
| C=CCOC(=O)N[C@H](C(=O)N1CCC[C@H]1c1nc(-c2ccc(-c3cc4ccc3CCc3ccc(c(-c5ccc(-c6c[nH]c([C@@H]7CCCN7C(=O)[C@@H](NC(=O)OCC=C)C(C)C)n6)cc5)c3)CC4)cc2)c[nH]1)C(C)C [Compound 55] | – | > 1000 |
